Assay results taken from patent US20210236605A1, “COMBINATIONS OF OSTEOPONTIN AND 2'-FUCOSYLLACTOSE FOR USE AS MEDICAMENTS” (HEALTH AND HAPPINESS (H&H) HONG KONG LIMITED, priority 2018, published 2021).

Experiments:
serum IgE = test: Determination of serum IgE levels (ELISA) in DNCB sensitized mice; format: in vivo; details: day 27, DNCB-sensitized BALB/c mice (DNCB saline group 1025.02±82.68), FIG. 3; combination = high dose, trial 8
Method: (§1) Balb/c mice were purchased from the Animal Center of Southern Medical University (Guangzhou, China). The animals were maintained under a 12-h light/dark cycle in a specific pathogen-free animal facility at a controlled temperature (20-25° C.) and humidity (50±5%). All mice were fed with regular diet and autoclaved water. All animal experiments in this study were approved by the Welfare and Ethical Committee for Experimental Animal Care of Southern Medical University. To induce AD-like symptom, dinitrochlorobenzene (DNCB) solution (dissolved in a 3:1 mixture of acetone and olive oil) was applied to the dorsal skin and ears of mice (female, 6-8 weeks old). One day after complete dorsal hair removal (approximately 4 cm^2), 150 μl of 2% DNCB solution was applied on the dorsal skin, and 10 μl each were applied to the back of both ears at day 1. Four days after sensitization, 0.5% DNCB dissolved in an acetone:olive oil mixture (3:1 vol/vol) is applied to challenge the dorsal skin (150 μl) and the back of both ears (10 μl each) once every two days, (days-27). OPN and 2-FL were dissolved in 0.9% normal saline. […]
Individual mouse serum was collected on the last day of the experiment. Serum levels of IgE were quantified using the commercial enzyme-linked immunosorbent assay (ELISA) kits (Invitrogen, San Diego, USA) according to the manufacturer's instructions. […]

[1] = test system: scratching behaviour (pruritus) in DNCB-treated BALB/c mice; test: Assessment of scratching behaviour in DNCB-treated BALB/c mice; format: in vivo; details: oral administration, FIG. 2, combination esp. trials 7 & 8
Method: as §1, with “(days-27).” for “(days-27). OPN and 2-FL were dissolved in 0.9% normal saline.”
Mice were placed into cages for 1 h for habituation. After habituation, the number of scratching episodes for 15 min was counted macroscopically. A series of scratching movements made with the paw was counted as one scratching episode. The total scratching behaviour number was calculated within 15 min. […]

[2] = test system: cytokine mRNA expression in skin (TSLP, IL-4, IL-17, IFN-γ, T-bet, GATA3, ROR-γt); test: Quantitative RT-PCR of cytokine and transcription factor mRNA in dorsal skin of DNCB-treated mice; format: in vivo, BALB/c mice; details: dorsal skin / skin lesions, ratio to GAPDH, vs saline-treated/control AD mice
Method: Total RNA was isolated from the dorsal skin of the control and treated BALB/c mice. Subsequently, cytokine mRNA expression in the skin sample was measured by RT-PCR.
Balb/c mice were purchased from the Animal Center of Southern Medical University (Guangzhou, China). The animals were maintained under a 12-h light/dark cycle in a specific pathogen-free animal facility at a controlled temperature (20-25° C.) and humidity (50±5%). All mice were fed with regular diet and autoclaved water. All animal experiments in this study were approved by the Welfare and Ethical Committee for Experimental Animal Care of Southern Medical University. […]
Total RNA was isolated from dorsal skin using TRIzol (TransGen Biotech, Beijing, China) according to manufacturer's instruction. 500 ng RNA was quantified for the reverse transcription reaction with TranScript All-in-One First-Strand cDNA Synthesis SuperMix (TransGen Biotech, Beijing, China) in a total volume of 10 μL. Quantitative real-time PCR (RT-PCR) analysis of gene expression was performed using TransStart Green qPCR SuperMix (TransGen Biotech, Beijing, China). […]
FIGS. 5 (a), (b) and (c): Relative mRNA expression levels of Th2-associated cytokines ((a) TSLP and (b) IL-4) and IL17a, as measured by RT-PCR and expressed as a ratio of GAPDH, extracted from BALB/c mice treated with DNCB in the presence and absence of OPN and/or 2FL. *p<0.05, **p<0.01. […]

[3] = test system: DNCB-induced AD-like symptoms in BALB/c mice; test: Evaluation of AD score / AD-like symptoms in DNCB-induced BALB/c AD model; format: in vivo; details: for severity of DNCB-induced AD-like symptoms: BALB/c mice, OPN 37.5 or 2.7 mg/kg(bw)/day, 2-FL 600 or 75 mg/kg(bw)/day, compared with saline-supplemented mice; for AD score (dermatitis score, AD-like symptoms): oral administration, DNCB-treated BALB/c mice, FIG. 1, combinations esp. trials 7 and 8 (high OPN)
Excerpt: To investigate the potential therapeutic effect of OPN or 2-FL or an OPN/2FL combination on inflammation and emergence of atopic dermatitis (AD), BALB/c AD model was established by topical application of DNCB on each ear and the dorsal skin. Edema, excoriation, erythema, and scarring were apparent on the skin of DNCB sensitized mice after multiple challenged of DNCB. Strikingly, the severity of DNCB-induced AD-like symptoms in BALB/c mice was ameliorated upon supplementation with OPN (37.5 or 2.7 mg/kg(bw) day) and 2-FL (600 or 75 mg/kg(bw)·day) compared with saline-supplemented mice. Pruritus is an essential feature of AD. The scratching behaviour has already been established as an objective indicator to evaluate pruritus in animal model.
Balb/c mice were purchased from the Animal Center of Southern Medical University (Guangzhou, China). The animals were maintained under a 12-h light/dark cycle in a specific pathogen-free animal facility at a controlled temperature (20-25° C.) and humidity (50±5%). All mice were fed with regular diet and autoclaved water. All animal experiments in this study were approved by the Welfare and Ethical Committee for Experimental Animal Care of Southern Medical University. To induce AD-like symptom, dinitrochlorobenzene (DNCB) solution (dissolved in a 3:1 mixture of acetone and olive oil) was applied to the dorsal skin and ears of mice (female, 6-8 weeks old). One day after complete dorsal hair removal (approximately 4 cm^2), 150 μl of 2% DNCB solution was applied on the dorsal skin, and 10 μl each were applied to the back of both ears at day 1. Four days after sensitization, 0.5% DNCB dissolved in an acetone:olive oil mixture (3:1 vol/vol) is applied to challenge the dorsal skin (150 μl) and the back of both ears (10 μl each) once every two days, (days-27). OPN and 2-FL were dissolved in 0.9% normal saline. Mice treated with DNCB are intragastrically administered with 2-FL, OPN or 2-FL plus OPN from day 0 to day 27. The mice in the vehicle and another DNCB groups are given an equal volume of physiological saline.
The severity of dorsal skin lesions were assessed macroscopically according to the following four symptoms: edema, erythema/hemorrhage, excoriation/erosion, and scarring/dryness, and the sum of the individual scores (0, no symptoms; 1, mild; 2, moderate; 3, severe), ranging from 0 to 12, was defined as the final dermatitis scores. These visual assessments were performed every two day and by at least two independent investigators.
FIG. 1: OPN and 2-FL alleviation of AD-like symptoms induced—as per dermatitis score evaluation—by DNCB in BALB/c mice. […]

Row | Substance | serum IgE concentration (serum IgE) [µg/mL] | scratching behaviour (number of scratching episodes for 15 min) [1] | IL-17 mRNA expression in skin [2] | severity of DNCB-induced AD-like symptoms [3] | AD score (dermatitis score, AD-like symptoms) [3]
1 | 2′-fucosyllactose [2-FL] | 621.27 ± 46.79 | reduced scratching behaviour | significantly lower | ameliorated | reduced substantially
2 | osteopontin [OPN] | 388.22 ± 61.28 | reduced scratching behaviour | significantly lower | ameliorated | reduced substantially
